Consider 27 compounds from patent US11673869B2, “4-oxazolidinone antimicrobial agents” (NORTH CAROLINA STATE UNIVERSITY, priority 2016, dated 2023).

Values after ≈ are worked out from the molar mass of the structure shown.

One assay deals with S. aureus. The experiment in a line: Broth microdilution MIC determination, S. aureus. Format: cell-based, Staphylococcus aureus. The following applies: minimum inhibitory concentration, recorded after 16 h, unit assumed. (In general: Broth dilution looks for growth in wells or tubes with falling amounts of substance.)
For another assay, the system named is A. baumannii. The experiment in a line: Broth microdilution MIC determination, A. baumannii. It counts as cell-based, Acinetobacter baumannii. Conditions: minimum inhibitory concentration, recorded after 16 h, unit assumed. Here is the method: [The procedure below names another organism; the source lists this organism under the same test.] (§1) Broth microdilution protocol for minimum inhibition concentration (MIC) determination. Fresh Mueller-Hinton broth (MHB) ˜3 ml, was inoculated (5×10^5 CFU mL^−1) with MRSA (ATCC 33591) methicillin-resistant Staphylococcus aureus. The resulting bacterial suspension was aliquoted (1 mL) into culture tubes and test compound (10 mM DMSO stock solution) was added to reach the final concentration of the interest. Bacteria not treated with the antimicrobial compound served as the control. Rows 2-12 of a 96-well microtiter plate were filled with remaining bacterial subcultures. The samples containing test compound were aliquoted (200 μL) into the first row wells of the microtiter plate (2 wells per compound). Row 1 wells were mixed 6-8 times and 100 μL was transferred down to row 2. Row 2 wells were mixed 6-8 times, followed by a 100 μL transfer from row 2 down to row 3. The rest of the rows of the plate were serially diluted in similar fashion. The plate was covered with sealing tape for 96-well plates (ThermoFisher) and incubated under stationary conditions at 37° C. A duplicate of the plate was prepared.
(§2) MIC values for vancomycin, linezolid, and tetracycline are included in Table 1 for purposes of comparison.

Assay [1] has as its system MRSA (ATCC 33591) methicillin-resistant Staphylococcus aureus. Briefly: Broth microdilution MIC determination, MRSA. Format: cell-based. Conditions: minimum inhibitory concentration, MRSA ATCC 33591, Mueller-Hinton broth, 37° C., recorded after 16 h; unit assumed. Here is the method: as §1, §2

The compound `CCCCCCC/C(C)=C/C(=O)/C=C1\NC(=O)[C@H](CCCC)O1` [Compound 1, (S)-Lipoxazolidinone A] displayed an MIC S. aureus in the assay with S. aureus of 1 µg/mL (≈ 3.11 µM). The compound further had an MIC A. baumannii in the assay on A. baumannii of over 50 µg/mL. The MIC MRSA in assay [1] was 0.5 µg/mL (≈ 1.56 µM).

For the compound `CCCCCCC/C(C)=C/C(=O)/C=C1\NC(=O)[C@@H](CCCC)O1` [Compound 2, (R)-Lipoxazolidinone A], the MIC S. aureus in the assay with S. aureus came to 4 µg/mL (≈ 12.4 µM). The MIC MRSA in assay [1] came to 1 µg/mL (≈ 3.11 µM).

For `CCCCCCC/C=C/C(=O)/C=C1\NC(=O)[C@H](CCCC)O1` [Compound 3, (S,E)-5-Butyl-2-((E)-2-oxoundec-3-en-1-ylidene)oxazolidin-4-one], the MIC S. aureus against S. aureus was found to be 0.5 µg/mL (≈ 1.63 µM). In addition, the MIC A. baumannii against A. baumannii is over 50 µg/mL. The compound also gave an MIC MRSA in assay [1] of 0.125 µg/mL (≈ 0.407 µM).

As for `CCCCCCCCCC(=O)/C=C1\NC(=O)[C@H](CCCC)O1` [Compound 4, (S,E)-5-Butyl-2-(2-oxoundecylidene)oxazolidin-4-one], in the assay with S. aureus, the MIC S. aureus was 2 µg/mL (≈ 6.46 µM). In assay [1], this compound gave an MIC MRSA of 0.25 µg/mL (≈ 0.808 µM).

As to `CCCC[C@@H]1O/C(=C/C(=O)CCC)NC1=O` [Compound 5, (S,E)-5-Butyl-2-(2-oxopentylidene)oxazolidin-4-one], the MIC S. aureus against S. aureus came out at 16 µg/mL (≈ 71 µM). In addition, the MIC A. baumannii in the assay with A. baumannii was over 50 µg/mL. The compound also came in with an MIC MRSA in assay [1] of 16 µg/mL (≈ 71 µM).

Regarding `CCCC[C@@H]1O/C(=C/C(C)=O)NC1=O` [Compound 6, (S,E)-5-Butyl-2-(2-oxopropylidene)oxazolidin-4-one], the MIC S. aureus with S. aureus was determined as 128 µg/mL (≈ 649 µM). Moreover, the MIC MRSA in assay [1] is over 128 µg/mL.

In the assay with S. aureus, `CCCCCCCCCCCCCCCC(=O)/C=C1\NC(=O)[C@H](CCCC)O1` [Compound 7, (S,E)-5-Butyl-2-(2-oxoheptadecylidene)oxazolidin-4-one] came in with an MIC S. aureus of 128 µg/mL (≈ 325 µM). Moreover, the MIC MRSA in assay [1] stood at 16 µg/mL (≈ 40.6 µM).

The compound `CCCCCCCCCC(=O)/C=C1\NC(=S)[C@H](CCCC)O1` [Compound 8, (S,E)-1-(5-butyl-4-thioxooxazolidin-2-ylidene)undecan-2-one] showed an MIC S. aureus against S. aureus of 128 µg/mL (≈ 393 µM). This compound also returned an MIC MRSA in assay [1] of 64 µg/mL (≈ 197 µM).

The compound `CCCCCCCCCC(=O)/C=C1\NC(=O)[C@H](CC(C)C)O1` [Compound 9, (S,E)-5-isobutyl-2-(2-oxoundecylidene)oxazolidin-4-one] displayed an MIC S. aureus in the assay with S. aureus of 0.5 µg/mL (≈ 1.62 µM). In the assay with A. baumannii, this compound gave an MIC A. baumannii of over 128 µg/mL. The compound further had an MIC MRSA in assay [1] of 0.0675 µg/mL (≈ 0.218 µM).

In turn, `CCCCCCCCCC(=O)/C=C1\NC(=O)[C@H]([C@@H](C)CC)O1` [Compound 10, (S,E)-5-((S)-sec-butyl)-2-(2-oxoundecylidene)oxazolidin-4-one] had an MIC S. aureus against S. aureus of 0.5 µg/mL (≈ 1.62 µM). This compound registered an MIC A. baumannii in the assay on A. baumannii of over 128 µg/mL. In assay [1], this compound came in with an MIC MRSA of 0.0675 µg/mL (≈ 0.218 µM).

For `CCCCCCCCCC(=O)/C=C1\NC(=O)[C@H](C(C)C)O1` [Compound 11, (S,E)-5-isopropyl-2-(2-oxoundecylidene)oxazolidin-4-one], the MIC S. aureus in the assay with S. aureus was found to be 0.5 µg/mL (≈ 1.69 µM). The MIC A. baumannii in the assay on A. baumannii is over 64 µg/mL. The compound further gave an MIC MRSA in assay [1] of 0.0338 µg/mL (≈ 0.114 µM).

In the assay with S. aureus, `CCCCCCCCCC(=O)/C=C1\NC(=O)[C@H](Cc2ccccc2)O1` [Compound 12, (S,E)-5-benzyl-2-(2-oxoundecylidene)oxazolidin-4-one] displayed an MIC S. aureus of 4 µg/mL (≈ 11.6 µM). The compound further returned an MIC MRSA in assay [1] of 0.5 µg/mL (≈ 1.46 µM).

`CCCCCCCCCC(=O)/C=C1\NC(=O)CO1` [Compound 13, (E)-2-(2-Oxoundecylidene)oxazolidin-4-one] yielded an MIC S. aureus in the assay on S. aureus of 4 µg/mL (≈ 15.8 µM). In assay [1], this compound returned an MIC MRSA of 2 µg/mL (≈ 7.89 µM).

On to `CCCCCCCCCC(=O)/C=C1\NC(=O)[C@H](C)O1` [Compound 14, (S,E)-5-Methyl-2-(2-oxoundecylidene)oxazolidin-4-one], for which, in the assay on S. aureus, the MIC S. aureus amounted to 1 µg/mL (≈ 3.74 µM). The MIC MRSA in assay [1] amounted to 0.8 µg/mL (≈ 2.99 µM).

On to `CCCCCCCCCC(=O)/C=C1\NC(=O)[C@H](c2ccccc2)O1` [Compound 15, (S,E)-2-(2-oxoundecylidene)-5-phenyloxazolidin-4-one], for which, in the assay on S. aureus, the MIC S. aureus came out at 2 µg/mL (≈ 6.07 µM). In the assay with A. baumannii, this compound yielded an MIC A. baumannii of over 128 µg/mL. Further, in assay [1], the MIC MRSA is 1 µg/mL (≈ 3.04 µM).

The compound `CC(C)[C@@H]1O/C(=C/C(=O)Cc2ccccc2)NC1=O` [Compound 16, (S,E)-5-isopropyl-2-(2-oxo-3-phenylpropylidene)oxazolidin-4-one] yielded an MIC MRSA in assay [1] of 2 µg/mL (≈ 7.71 µM).

For the compound `CC(C)[C@@H]1O/C(=C/C(=O)C(c2ccccc2)c2ccccc2)NC1=O` [Compound 17, (S,E)-5-isopropyl-2-(2-oxo-3,3-diphenylpropylidene)oxazolidin-4-one], the MIC MRSA in assay [1] was 0.5 µg/mL (≈ 1.49 µM).

For the compound `COC(=O)CCCC(=O)/C=C1\NC(=O)[C@H](C(C)C)O1` [Compound 18, methyl (S,E)-6-(5-isopropyl-4-oxooxazolidin-2-ylidene)-5-oxohexanoate], the MIC MRSA in assay [1] came out at 32 µg/mL (≈ 119 µM).

The compound `C#CCCCCC(=O)/C=C1\NC(=O)[C@H](C(C)C)O1` [Compound 19, (S,E)-5-isopropyl-2-(2-oxooct-7-yn-1-ylidene)oxazolidin-4-one] had an MIC MRSA in assay [1] of 16 µg/mL (≈ 64.2 µM).

Compound `CC(=O)/C=C1\NC(=O)[C@H](C)O1` [Compound 20, (S,E)-5-methyl-2-(2-oxopropylidene)oxazolidin-4-one] returned an MIC S. aureus against S. aureus of over 128 µg/mL. Besides, in assay [1], the MIC MRSA was over 128 µg/mL.

Turning to `CCCCCCCCCC(=O)/C=C1\NC(=O)[C@H](C(C)(C)C)O1` [Compound 21, (S,E)-5-(tert-butyl)-2-(2-oxoundecylidene)oxazolidin-4-one], the MIC S. aureus against S. aureus stood at 0.5 µg/mL (≈ 1.62 µM). The same compound had an MIC MRSA in assay [1] of 0.0675 µg/mL (≈ 0.218 µM).

`CCCCCCCCCC(=O)/C=C1\NC(=O)[C@H](CC)O1` [Compound 22, (S,E)-5-ethyl-2-(2-oxoundecylidene)oxazolidin-4-one] showed an MIC S. aureus in the assay with S. aureus of 2 µg/mL (≈ 7.11 µM). In addition, the MIC MRSA in assay [1] was 1 µg/mL (≈ 3.55 µM).

Consider `CC(C)[C@@H]1O/C(=C/C(=O)Cc2ccc(-c3ccccc3)cc2)NC1=O` [Compound 23, (S,E)-2-(3-([1,1′-biphenyl]-4-yl)-2-oxopropylidene)-5-isopropyloxazolidin-4-one], for which, in the assay with S. aureus, the MIC S. aureus is 0.25 µg/mL (≈ 0.745 µM). This compound gave an MIC MRSA in assay [1] of 0.125 µg/mL (≈ 0.373 µM).

`CC(C)[C@@H]1O/C(=C/C(=O)Cc2ccc(Br)cc2)NC1=O` [Compound 24, (S,E)-2-(3-(4-bromophenyl)-2-oxopropylidene)-5-isopropyloxazolidin-4-one] had an MIC S. aureus against S. aureus of 1 µg/mL (≈ 2.96 µM). The compound also gave an MIC MRSA in assay [1] of 0.5 µg/mL (≈ 1.48 µM).

`CC(=O)NC[C@H]1CN(c2ccc(N3CCOCC3)c(F)c2)C(=O)O1` [linezolid, reference compound] yielded an MIC S. aureus with S. aureus of 0.5 µg/mL (≈ 1.48 µM). In the assay with A. baumannii, the MIC A. baumannii was over 100 µg/mL. The MIC MRSA in assay [1] was determined as 1 µg/mL (≈ 2.96 µM).

In turn, `CN(C)[C@@H]1C(O)=C(C(N)=O)C(=O)[C@@]2(O)C(O)=C3C(=O)c4c(O)cccc4[C@@](C)(O)[C@H]3C[C@@H]12` [tetracycline, reference compound] returned an MIC S. aureus in the assay with S. aureus of 0.25 µg/mL (≈ 0.563 µM). Further, the MIC A. baumannii with A. baumannii stood at 2 µg/mL (≈ 4.5 µM).

In turn, `CN[C@H](CC(C)C)C(=O)N[C@H]1C(=O)N[C@@H](CC(N)=O)C(=O)N[C@H]2C(=O)N[C@H]3C(=O)N[C@H](C(=O)N[C@H](C(=O)O)c4cc(O)cc(O)c4-c4cc3ccc4O)[C@H](O)c3ccc(c(Cl)c3)Oc3cc2cc(c3O[C@@H]2O[C@H](CO)[C@@H](O)[C@H](O)[C@H]2O[C@H]2C[C@](C)(N)[C@H](O)[C@H](C)O2)Oc2ccc(cc2Cl)[C@H]1O` [vancomycin, reference compound] showed an MIC S. aureus against S. aureus of 1 µg/mL (≈ 0.69 µM). In the assay on A. baumannii, this compound showed an MIC A. baumannii of over 100 µg/mL. This compound came in with an MIC MRSA in assay [1] of 1 µg/mL (≈ 0.69 µM).
